Results: the NIST ThermoML archive (doi:10.1016/j.jct.2013.12.025)

Assay: refractive index (Na D-line) (dimensionless); xn = mol fraction of the nth substance listed
Details: 101 kPa, Liquid, Standard Abbe refractometry

C=C[Si](C)(C)O[Si](C)(C)C=C [1,3-diethenyl-1,1,3,3-tetramethyldisiloxane] + CCc1ccccc1
refractive index
Details | 283.15 K | 288.15 K | 293.15 K | 298.15 K | 303.15 K
x1 = 0.0501 | 1.49399 | 1.49133 | 1.48864 | 1.48591 | 1.48318
x1 = 0.1001 | 1.48737 | 1.48473 | 1.48204 | 1.47931 | 1.4766
x1 = 0.1499 | 1.48124 | 1.47856 | 1.47587 | 1.47319 | 1.47044
x1 = 0.2001 | 1.47548 | 1.47282 | 1.47013 | 1.46745 | 1.46472
x1 = 0.25 | 1.47011 | 1.46746 | 1.46476 | 1.46206 | 1.45934
x1 = 0.3 | 1.46506 | 1.46243 | 1.45974 | 1.45705 | 1.45432
x1 = 0.3499 | 1.46032 | 1.45769 | 1.45502 | 1.45233 | 1.4496
x1 = 0.4 | 1.45589 | 1.45324 | 1.45057 | 1.44786 | 1.44516
x1 = 0.4501 | 1.45171 | 1.44905 | 1.44639 | 1.44368 | 1.44097
x1 = 0.5 | 1.44774 | 1.44509 | 1.44243 | 1.43975 | 1.43705
x1 = 0.5503 | 1.44396 | 1.44135 | 1.43866 | 1.43599 | 1.43331
x1 = 0.6 | 1.44044 | 1.43779 | 1.43514 | 1.43246 | 1.42979
x1 = 0.6501 | 1.43706 | 1.43444 | 1.43177 | 1.42909 | 1.42643
x1 = 0.6999 | 1.43392 | 1.43128 | 1.4286 | 1.42594 | 1.42325
x1 = 0.7502 | 1.43084 | 1.4282 | 1.42555 | 1.42288 | 1.42022
x1 = 0.8001 | 1.42794 | 1.42531 | 1.42264 | 1.41999 | 1.41732
x1 = 0.85 | 1.42518 | 1.42258 | 1.41991 | 1.41723 | 1.41458
x1 = 0.8999 | 1.42257 | 1.41995 | 1.41729 | 1.41464 | 1.41198
x1 = 0.9498 | 1.42013 | 1.41752 | 1.41486 | 1.41219 | 1.40954
x1 = 1 | 1.41762 | 1.41498 | 1.41232 | 1.40969 | 1.40704

C=C[Si](C)(C)O[Si](C)(C)C=C [1,3-diethenyl-1,1,3,3-tetramethyldisiloxane] + COc1ccccc1
refractive index
Details | 283.15 K | 288.15 K | 293.15 K | 298.15 K | 303.15 K
x1 = 0.0501 | 1.51284 | 1.51027 | 1.50766 | 1.50499 | 1.50234
x1 = 0.1 | 1.50406 | 1.5015 | 1.49885 | 1.49617 | 1.49356
x1 = 0.15 | 1.49596 | 1.49337 | 1.49073 | 1.48807 | 1.48543
x1 = 0.2004 | 1.48841 | 1.48578 | 1.48317 | 1.48051 | 1.47786
x1 = 0.2499 | 1.48153 | 1.47893 | 1.47631 | 1.47362 | 1.47098
x1 = 0.3 | 1.47505 | 1.47247 | 1.46982 | 1.46716 | 1.4645
x1 = 0.35 | 1.46908 | 1.46651 | 1.46384 | 1.46116 | 1.45851
x1 = 0.3997 | 1.46353 | 1.46092 | 1.45829 | 1.4556 | 1.45295
x1 = 0.4499 | 1.45831 | 1.45568 | 1.45303 | 1.45034 | 1.4477
x1 = 0.5001 | 1.45338 | 1.45077 | 1.44813 | 1.44544 | 1.44279
x1 = 0.5499 | 1.44883 | 1.4462 | 1.44358 | 1.44089 | 1.43823
x1 = 0.6 | 1.4445 | 1.44188 | 1.43925 | 1.43657 | 1.43393
x1 = 0.6499 | 1.44046 | 1.43782 | 1.43521 | 1.43252 | 1.42986
x1 = 0.6999 | 1.43664 | 1.43403 | 1.43139 | 1.4287 | 1.42604
x1 = 0.7499 | 1.43304 | 1.43043 | 1.42778 | 1.4251 | 1.42244
x1 = 0.8 | 1.42961 | 1.42699 | 1.42434 | 1.42166 | 1.41901
x1 = 0.8499 | 1.42639 | 1.42377 | 1.42112 | 1.41846 | 1.4158
x1 = 0.8998 | 1.42333 | 1.4207 | 1.41806 | 1.4154 | 1.41277
x1 = 0.9499 | 1.42042 | 1.41779 | 1.41515 | 1.41251 | 1.40987
x1 = 1 | 1.41766 | 1.415 | 1.41236 | 1.4097 | 1.40707

C=C[Si](C)(C)O[Si](C)(C)C=C [1,3-diethenyl-1,1,3,3-tetramethyldisiloxane] + Clc1ccccc1
refractive index
Details | 283.15 K | 288.15 K | 293.15 K | 298.15 K | 303.15 K
x1 = 0.05 | 1.51909 | 1.51642 | 1.51366 | 1.51088 | 1.50802
x1 = 0.0998 | 1.50933 | 1.5066 | 1.50385 | 1.50103 | 1.49821
x1 = 0.15 | 1.50029 | 1.49759 | 1.49487 | 1.492 | 1.48923
x1 = 0.1996 | 1.49216 | 1.48946 | 1.48671 | 1.48389 | 1.48103
x1 = 0.25 | 1.4846 | 1.48187 | 1.47913 | 1.47637 | 1.47349
x1 = 0.2999 | 1.47766 | 1.47495 | 1.47223 | 1.46943 | 1.46663
x1 = 0.35 | 1.47122 | 1.46854 | 1.46582 | 1.46303 | 1.46019
x1 = 0.3999 | 1.46527 | 1.46262 | 1.4599 | 1.45712 | 1.45432
x1 = 0.4496 | 1.45981 | 1.45712 | 1.45441 | 1.45167 | 1.44883
x1 = 0.4999 | 1.45464 | 1.45197 | 1.44926 | 1.4465 | 1.4437
x1 = 0.5499 | 1.44985 | 1.44716 | 1.44446 | 1.4417 | 1.43891
x1 = 0.6 | 1.44533 | 1.44268 | 1.43999 | 1.43722 | 1.43446
x1 = 0.6469 | 1.44138 | 1.4387 | 1.43603 | 1.43329 | 1.43053
x1 = 0.6998 | 1.43721 | 1.43455 | 1.43185 | 1.42911 | 1.42638
x1 = 0.7499 | 1.43345 | 1.4308 | 1.42812 | 1.42542 | 1.4227
x1 = 0.7997 | 1.42994 | 1.42729 | 1.42463 | 1.42193 | 1.41923
x1 = 0.8499 | 1.42661 | 1.42395 | 1.42129 | 1.41862 | 1.41593
x1 = 0.8996 | 1.4235 | 1.42083 | 1.41817 | 1.4155 | 1.41283
x1 = 0.9497 | 1.4205 | 1.41785 | 1.4152 | 1.41257 | 1.40991
x1 = 1 | 1.41767 | 1.415 | 1.41237 | 1.40973 | 1.40708
